# Measurements published in publication PMC9146163, “Novel Au Carbene Complexes as Promising Multi-Target Agents in Breast Cancer Treatment” (Pharmaceuticals, 2022).
# Read-outs that look alike come from different tables or passages of the source.
# Key:
# [1] = test system: vimentin in MCF-10A cells; assay: Vimentin expression (immunofluorescence, Western blot), MCF-10A; format: cell-based, human; conditions: IC50 values, 24 h; immunofluorescence and Western blot quantification
# Description: (§1) The MitoTracker Deep Red FM probe (MitoTracker Mitochondrion-Selective Probes, Invitrogen European Headquarters, Paisley, PA4 9RF, UK) was used for mitochondrial staining, as previously described. For immunofluorescence analysis, the cells were seeded and further processed, as reported by Iacopetta et al.. The primary antibodies used were: rabbit anti-β-Actin and vimentin (Santa Cruz Biotechnology, Dallas, TX, USA), mouse anti cytochrome c and NF-κB p65 (Abcam, Cambridge, UK), diluted 1:100 in bovine serum albumin (BSA) 2% overnight at 4 °C. The secondary antibodies were: Alexa Fluor® 488 conjugate goat-anti-rabbit and Alexa Fluor® 568 conjugate goat-anti-mouse (Thermo Fisher Scientific, MA, USA), diluted 1:500 and incubated for 2h at 37 °C. DAPI 0.2 μg/mL (Sigma Aldrich, Milan, Italy) was used for nuclei staining. […] All the images were acquired and processed using the LAS-X software.
# Protein lysates underwent the SDS-PAGE process, as already defined. […]
# (CTRL) for 24 h. After treatment, the cells were further processed, observed and imaged under the inverted fluorescence microscope at 20x m agnification (for mo re details see Materi als and M ethods). […]
# and processed as reported in the Experimental Section. […] (d) Western blots quantification carried out using […]
# NF-κB in MCF-10A cells = assay: NF-κB immunofluorescence, MCF-10A; format: cell-based, human
# Description: as §1
# L: Figure S6. NF-κB expression in MCF-10A cells
# CTRL cells and in the cells exposed to compounds 1 and 6 NF-κB is localized within the cytoplasm and nucleus. Panels A, nuclear stain with DAPI (λex/em= 350/460 nm); panels B, Alexa Fluor CF 488 (λex/em= 490/515 nm); panels C, overlay channels. Images were acquired at 40x magnification and repres entative fields are shown.
# β-actin in MCF-10A cells = assay: Actin immunofluorescence, MCF-10A; format: cell-based, human
# Description: as §1
# E: Figure S1. Actin immunofluorescence studies in MCF-10A cells […]
# Figure S1. Actin immunofluorescence studies. M CF-10A cells were treat ed with compounds 1 and […]
# treatment, the cells were methanol fixed, incubated with primary and secondary antibodies, stained with DAPI and observed and imaged under the inverted fluorescence microscope at 20x […]
# A: nuclear stain with DAPI (λex/λem = 350/460 nm); Panels B: β-actin ([…]); Panels C: show a merge. R epresentative fields are shown.
# [2] = biological target: T1, Labeled Rabbit Muscle Actin (Oryctolagus cuniculus, UniProt P68135); assay: In vitro actin depolymerization assay; format: biochemical; conditions: 5 µM
# T1 construct: purchased Abcam (Actin Polymerization/Depolymerization Assay Kit)
# Description: The ability of the tested compounds to interfere with the actin polymerization and depolymerization reaction was measured using an Actin Polymerization/Depolymerization Assay Kit purchased from Abcam, following the manufacturer’s instructions. […] For the polymerization assay, reconstituted actin was mixed with supplemented Buffer G and samples in a white 96-well plate and then the polymerization reaction was induced with the addition of the Buffer P supplemented with 10 mM ATP. The solution was mixed and the data acquisition started. For the Actin Depolymerization Assay, supplemented Buffers P and G were mixed and incubated in a white 96-well plate at room temperature for one hour to polymerize the actin, protected from light. Then samples were added and the data acquisition started. Latrunculin A and Cytochalasin B were used as control molecules at a concentration of 5 μM. For both the assays, the assembly of actin filaments was determined by measuring the fluorescence (Ex/Em: 365/410 nm) in kinetic mode for 1 h at room temperature using a microplate reader.
# MCF-10A cells = assay: TUNEL assay, MCF-10A; conditions: IC50, 24 h
# Hek-293 cells = assay: MTT assay, normal Hek-293; format: cell-based, human; conditions: MTT, 72 h; normal cells; mean ± SD; read-out: IC50 Hek-293
# Description: The five employed cell lines were purchased from American Type Culture Collection (ATCC, Manassas, VA, USA) and maintained as already reported. […] SkBr3 cells were maintained in DMEM high glucose, supplemented with 10% FBS and 100 μg/mL penicillin/streptomycin.
# (§2) MTT assays [Sigma Aldrich (St.Louis, MO, USA)] were used in order to determine the in vitro anticancer activities of all the target compounds, as already reported.The compounds were tested at different concentrations (0.1-1-10-20-40 µM) for 72 h. Results are represented as percent (%) of basal and the IC50 values were calculated using GraphPad Prism 9 (GraphPad Software, La Jolla, CA, USA).
# β-actin in MCF-7 cells = assay: Actin immunofluorescence, MCF-7; format: cell-based, human; conditions: 24 h; compound 6 at its IC50 value, LA 0.1 µM
# Description: as §1
# SkBr3 cells = assay: MTT assay, SkBr3; format: cell-based, human; conditions: MTT, 72 h; mean ± SD; read-out: IC50 SkBr3
# Description: The five employed cell lines were purchased from American Type Culture Collection (ATCC, Manassas, VA, USA) and maintained as already reported. MCF-7, MDA-MB-231, MCF-10A and Hek-293 were cultured, as indicated by Iacopetta et al.. SkBr3 cells were maintained in DMEM high glucose, supplemented with 10% FBS and 100 μg/mL penicillin/streptomycin.
# as §2
# [3] = test system: caspases 3/7, 8, and 9 in MCF-7 cells; assay: Caspase-Glo assay, MCF-7; format: cell-based, human; conditions: IC50 value, 24 h; vs vehicle
# Description: The activities of caspases 3/7, 8, and 9 were measured by using the Caspase-Glo Assay according to the manufacturer’s guidelines (Caspase-Glo 3/7, 8, and 9 Assay Systems, Promega Corporation, Madison, WI, USA), as already described. The luminescence was detected in a plate-reading luminometer (Synergy H1 Hybrid Reader, BioTek) for 30 min to 3 h (λex/em = 490/570 nm). Results were reported as signal-to-noise ratio (background was determined from the culture medium without cells). The experiments were performed in triplicate.
smiles,measurement,setting,value
"CC(=O)[O-].Cn1c(Cl)c(Cl)n(CC(O)c2ccccc2)[c]1=[Au+]=[c]1n(C)c(Cl)c(Cl)n1CC(O)c1ccccc1 (stereo not drawn) [Compound 6, Bis [4,5-dichloro-(N-methyl, N’(2-hydroxy-2-phenyl-ethyl)imidazole-2-ylidine]gold(I)] acetate]","vimentin expression vs CTRL, MCF-10A",[1],not significant
same,"NF-κB localization, MCF-10A",NF-κB in MCF-10A cells,localized within the cytoplasm and nucleus
same,actin organization in MCF-10A cells,β-actin in MCF-10A cells,normal
same,effect on already polymerized actin (in words),[2],did not produce a significant decrease
same,"apoptosis (TUNEL), MCF-10A",MCF-10A cells,No apoptosis was detected
same,IC50,Hek-293 cells,32.5 ± 1.1 µM
same,actin organization in MCF-7 cells,β-actin in MCF-7 cells,actin bundles appeared thicker and dramatically packed into the cytoplasm
same,IC50,SkBr3 cells,2.3 ± 0.9 µM
same,"caspase-3 and -7 activity, MCF-7",[3],clear increase
same,"caspase-8 activity, MCF-7",[3],significant rise
same,"caspase-9 activity, MCF-7",[3],no increase
Cn1ccn(CC([O-])c2ccccc2)[c]1=[Au+]=[c]1n(C)ccn1CC([O-])c1ccccc1.[Cl-].[Na+].[Na+] (stereo not drawn) [Compound 1],"vimentin expression vs CTRL, MCF-10A",[1],not significant
same,"NF-κB localization, MCF-10A",NF-κB in MCF-10A cells,localized within the cytoplasm and nucleus
same,actin organization in MCF-10A cells,"β-actin in MCF-10A cells; 24 h, compounds at their IC50 value, LA 0.1 μM",normal
same,effect on already polymerized actin (in words),[2],did not produce a significant decrease
same,"apoptosis (TUNEL), MCF-10A",MCF-10A cells,No apoptosis was detected
same,IC50,Hek-293 cells,> 200 µM
same,IC50,SkBr3 cells,83 ± 1 µM
